# Source: a compilation of properties of binary mixtures (doi:10.1007/s10953-014-0283-z)
# Test: xn = mol fraction of the nth substance listed
# Conditions: 100 kPa
smiles,measurement,setting,value
O + CC[NH3+].O=[N+]([O-])[O-],viscosity,"293.15 K, x1 = 1",0.99 mPa·s
same,viscosity,"298.15 K, x1 = 1",0.89 mPa·s
same,viscosity,"303.15 K, x1 = 1",0.81 mPa·s
same,viscosity,"308.15 K, x1 = 1",0.74 mPa·s
same,viscosity,"318.15 K, x1 = 1",0.6 mPa·s
CC[NH3+].O=[N+]([O-])[O-] + O,viscosity,"293.15 K, x2 = 0",40.61 mPa·s
same,viscosity,"293.15 K, x2 = 0.2597",9.91 mPa·s
same,viscosity,"293.15 K, x2 = 0.6776",3.6 mPa·s
same,viscosity,"293.15 K, x2 = 0.7889",2.4 mPa·s
same,viscosity,"293.15 K, x2 = 0.8895",1.64 mPa·s
same,viscosity,"293.15 K, x2 = 0.9499",1.36 mPa·s
same,viscosity,"298.15 K, x2 = 0",34.49 mPa·s
same,viscosity,"298.15 K, x2 = 0.1088",18.13 mPa·s
same,viscosity,"298.15 K, x2 = 0.2597",8.77 mPa·s
same,viscosity,"298.15 K, x2 = 0.3682",6.77 mPa·s
same,viscosity,"298.15 K, x2 = 0.47",5.61 mPa·s
same,viscosity,"298.15 K, x2 = 0.579",4.46 mPa·s
same,viscosity,"298.15 K, x2 = 0.6776",3.22 mPa·s
same,viscosity,"298.15 K, x2 = 0.9499",1.22 mPa·s
same,viscosity,"303.15 K, x2 = 0",29.65 mPa·s
same,viscosity,"303.15 K, x2 = 0.3682",6.06 mPa·s
same,viscosity,"303.15 K, x2 = 0.47",5.04 mPa·s
same,viscosity,"303.15 K, x2 = 0.579",4 mPa·s
same,viscosity,"303.15 K, x2 = 0.6776",2.9 mPa·s
same,viscosity,"303.15 K, x2 = 0.9499",1.1 mPa·s
same,viscosity,"308.15 K, x2 = 0",25.76 mPa·s
same,viscosity,"308.15 K, x2 = 0.2597",6.9 mPa·s
same,viscosity,"308.15 K, x2 = 0.3682",5.41 mPa·s
same,viscosity,"308.15 K, x2 = 0.579",3.61 mPa·s
same,viscosity,"308.15 K, x2 = 0.6776",2.62 mPa·s
same,viscosity,"308.15 K, x2 = 0.7889",1.78 mPa·s
same,viscosity,"308.15 K, x2 = 0.8895",1.22 mPa·s
same,viscosity,"308.15 K, x2 = 0.9499",1 mPa·s
same,viscosity,"313.15 K, x2 = 0.1088",12.2 mPa·s
same,viscosity,"313.15 K, x2 = 0.2597",6.2 mPa·s
same,viscosity,"313.15 K, x2 = 0.3682",4.89 mPa·s
same,viscosity,"313.15 K, x2 = 0.47",4.08 mPa·s
same,viscosity,"313.15 K, x2 = 0.6776",2.38 mPa·s
same,viscosity,"313.15 K, x2 = 0.7889",1.62 mPa·s
same,viscosity,"313.15 K, x2 = 0.8895",1.12 mPa·s
same,viscosity,"313.15 K, x2 = 0.9499",0.92 mPa·s
same,viscosity,"318.15 K, x2 = 0",20.12 mPa·s
same,viscosity,"318.15 K, x2 = 0.1088",10.87 mPa·s
same,viscosity,"318.15 K, x2 = 0.2597",5.59 mPa·s
same,viscosity,"318.15 K, x2 = 0.3682",4.43 mPa·s
same,viscosity,"318.15 K, x2 = 0.579",2.97 mPa·s
same,viscosity,"318.15 K, x2 = 0.6776",2.17 mPa·s
same,viscosity,"318.15 K, x2 = 0.8895",1.03 mPa·s
same,viscosity,"318.15 K, x2 = 0.9499",0.84 mPa·s
